Assay type in all cases: in vivo, albino Wistar rats
For data set [1], the system named is diethylnitrosamine-induced hepatocarcinogenic rats. In words: Oxidative stress parameters (SOD, CAT, GSH, PC, MDA) in liver of DEN-induced HCC rats. The settings on record: for CAT / MDA / PC / Reduced GSH / SOD: 15 days, mean ± SD, n = 6. Here is the method:
(§1) All animals were randomly divided into five groups of six animals each. Drugs were suspended in 0.25% CMC, subjected to 28 days’ treatment orally and divided as follows: Group I: 0.25% CMC (2 ml/kg), Group II: DEN (8 mg/kg, intraperitoneally), Group III: DEN+5-fluorouracil (5-FU, 10 mg/kg, intraperitoneally), Group IV: DEN+M1 (50 mg/kg, orally) and Group V: DEN+M1 (100 mg/kg, orally). The procedure to induce HCC was adopted from a paper by Song et al. where it is shown that DEN produces HCC at 8 mg/kg intraperitoneal injection for 28 days to albino Wistar rats. After initial 1 week of adaptive inhabitation, all rats of group II–V were administered with DEN (8 mg/kg, intraperitoneally) for 28 days. After 28 days, 5-FU and M1 were given for 15 days as mentioned above for group III–V. At the end of the experimental period, animals were sacrificed by cervical decapitation and livers were dissected out immediately, rinsed in ice cold saline and stored at -20°C for further studies. The serum was collected, processed and stored for further analysis.
Liver function biomarkers like aspartate aminotransferase (AST), alanine aminotransferase (ALT) were also measured in serum using commercially available kit from Ebra Diagonesis Pvt Ltd, Germany. The oxidative parameters like superoxide dismutase (SOD), thiobarbituric acid reactive substances (TBARS), protein carbonyl (PC), SOD [14], tissue catalase (CAT) and glutathione (GSH) levels were estimated in liver tissue in the similar experiment. The total protein content of each sample was measured using the Bradford reagent and bovine serum albumin was used as a standard. Conjugated bilirubin and biliverdin in liver were measured as per the following procedure stated earlier in the literature with slight modifications.

The test system is the same in data set [2]. In words: Histopathological studies of liver (hematoxylin and eosin). Conditions: DEN+M1 50 and 100 mg/kg orally; 40X. Here is the method: as §1
Histopathological studies were also performed to find out the morphological changes of liver cells after M1 administration. Liver tissues from each group were assessed for their morphological changes using hematoxylin and eosin staining. The tissues were preserved in 10% formalin overnight. […]

Data set [3] is described as follows: Determination of M1 in rat plasma by HPLC (pharmacokinetics). Here is the method: In a separate experiment, M1 was administered orally at 50 mg/kg bodyweight to albino Wistar rats (n = 3) and blood was collected from retro orbital plexus at 0.083, 0.25, 0.5, 1, 2, 4, 8, 12, 16, 24 and 36 h. After collection, blood was centrifuged at 10,000 rpm for 10 min, serum was separated and kept at -20°C for further HPLC determination.
A 1 mg/ml stock solution of M1 was prepared in methanol. 2, 5, 10, 25, 50, 100, 200, 250 and 500 ng/ml working solutions were prepared from the stock solution in methanol. A 100 μl of blank plasma and 100 μl working solutions were taken in separate tubes and vortexed for 30 min. After that, the tubes were centrifuged at 13,000 rpm for 5 min and supernatant was taken into another tube and dried at 40°C overnight. Later, the tubes were reconstituted with 50 μl of methanol, vortexed for 10 min and 20 μl was injected for HPLC analysis. The final concentration of working solutions were 1, 2.5, 5, 12.5, 25, 50, 100, 125 and 250 ng/ml, respectively. Quality control (QC) samples were also prepared at concentrations of 3.0, 25.0 and 200.0 ng/ml, representing low, medium and high QC samples (LQC, MQC and HQC), respectively. Triplicate calibrants and QC samples were prepared at each concentration.
For test samples, 100 μl of test plasma and 100 μl methanol were taken in a test tube and vortexed for 30 min. The other procedure was similar to previously described method.
For the determination of M1 in plasma samples, chromatographic separations were performed in a Waters 2489 HPLC (MA, USA) equipped with Spherowsorb C18, 5μ, 4.6 × 250 mm column. The flow rate was at 1.0 ml/min and the mobile phases consisted of solvent A (formic acid containing water, pH 3.4) and solvent B (methanol). The elution condition was methanol:formic acid (70:30) and the total run time was 8 min. The HPLC was run through Empower software version 2 and absorbance was measured at 230 nm wave length. The detector used for estimation was Waters 2489 UV-Vis detector. The final data was calculated using Winnonlin version 1.5.3 software.

The mark [4] stands for this setting: albino Wistar, rat, single oral administration of 50 mg/kg in rats, n = 3, plasma.

Usually AUC(0-t) stands for exposure summed from dosing to a finite time, without extrapolation to infinity. In general, Cmax refers to the highest concentration seen after dosing. For orientation: Tmax means the time from dosing to the highest level. By half-life is commonly meant the time needed for the level to fall by half in the phase considered. A high value points to slow decline. For orientation: MRT means a mean duration of stay, worked out from the concentration-time curve.

The structures appear in SMILES notation. “Also recorded” adds a separate entry of the source.

Consider `COc1cc2c(cc1OC)CC(C(=O)O)NC2` (centres unmarked) [M1, 6,7-dimethoxy-1,2,3,4-tetrahydro-isoquinoline-3-carboxylic acid], for which, in data set [1] (DEN+M1 50 mg/kg orally), the CAT is on record as 6.51 ± 0.29 nM of H2O2/min/μg of protein, the MDA is 51.60 ± 1.009 nM/μg of protein, the PC is 0.46 ± 0.08 μM/μg of protein and the “Reduced GSH” value is listed as 5.40 ± 0.42 μM/μg of protein. For the same molecule, the SOD in data set [1] (DEN+M1 50 mg/kg orally) is listed as 5.92 ± 0.72 U/μg of protein. In data set [1] (DEN+M1 100 mg/kg orally), the CAT was 7.52 ± 0.7 nM of H2O2/min/μg of protein, the MDA is 45.20 ± 1.05 nM/μg of protein, the PC is listed as 0.40 ± 0.02 μM/μg of protein and the “Reduced GSH” value is 6.69 ± 0.30 μM/μg of protein. Further, in data set [1] (DEN+M1 100 mg/kg orally), the SOD is on record as 6.14 ± 0.17 U/μg of protein. Also, the GSH level in data set [1] (M1 50 mg/kg) was ~5.40 µM. In data set [1] (M1 100 mg/kg), the GSH level is ~6.69 µM. In data set [1] (M1-treated groups (toxic control 20–30%)), the “SOD level as compared with normal group” value is reported as 70–80%. Further, in data set [1] (M1-treated rats, text value (toxic control ∼0.96 μM)), the PC formation is ~0.40 µM. For the same molecule, the MDA formation in data set [1] (after M1 therapy, text value (toxic control approximately 98 nM)) was ~50 nM. In data set [2], the liver histopathology result was “normal tissue architecture was seen; also recorded: less ruptured and denatured cells (RC and DC) than toxic control”. In data set [3] (albino Wistar, rat, plasma, po, 50 mg/kg, single oral administration of 50 mg/kg in rats, n = 3, plasma, after 36 h), the AUC(0-t) is 2070 ng·h/mL. Besides, in data set [3] (setting [4]), the peak level (Cmax) was 178 ± 3.27 ng/mL, the Tmax came out at 4 h and the half-life was 6.05 h. For the same molecule, the MRT in data set [3] (albino Wistar, rat, single oral administration of 50 mg/kg in rats, n = 3, plasma, read-out: MRT (mean retention time)) is 10.5 h. Moreover, the “oral bioavailability (in words)” value in data set [3] (oral 50 mg/kg, rats, inferred from Cmax) is “good oral bioavailability”. In data set [3] (single oral administration of 50 mg/kg in rats, n = 3, plasma, after 36 h, 50 mg/kg), this molecule displayed an AUC0-T of 2056.05 ± 26.22 ng·h/mL.

The values above are taken from article PMC5583658, “6,7-dimethoxy-1,2,3,4-tetrahydro-isoquinoline-3-carboxylic acid attenuates heptatocellular carcinoma in rats with NMR-based metabolic perturbations” (Future Science OA, 2017).
